pIC50: −log10 of the molar value.
What was measured:
[1] = system: recombinant SARS2 encoding WT M^pro; assay: microbe, parasite or virus in culture; format: cell-based; conditions: A549-hACE2 cells; for pIC50: Severe acute respiratory syndrome coronavirus 2, replication-competent SARS-CoV-2, M^pro WT, 72 hpi, read-out: IC50 (95% CI)
[2] = system: recombinant SARS2 encoding ∆P168 M^pro; assay: microbe, parasite or virus in culture; format: cell-based; conditions: Severe acute respiratory syndrome coronavirus 2; read-out: IC50 (95% CI)
[3] = molecular target: SARS2 M^pro ∆P168 (Severe acute respiratory syndrome coronavirus 2, UniProt P0DTD1, DEL3431-3431); format: cell-based, SARS-CoV-2

SMILES	pIC50 [1]	pIC50 [2]	Fold change in antiviral EC50 ([1]; M^pro WT virus (reference)) [fold]	effect on dose-response curve versus WT M^pro [3]
Cn1cnc(Cn2c(=O)[nH]/c(=N\c3cc4cn(C)nc4cc3Cl)n(Cc3cc(F)c(F)cc3F)c2=O)n1 [Ensitrelvir, ensitrelvir]	8.37	8.44		
CC(C)(C)[C@H](NC(=O)C(F)(F)F)C(=O)N1C[C@H]2[C@@H]([C@H]1C(=O)N[C@H](C#N)C[C@@H]1CCNC1=O)C2(C)C [Nirmatrelvir, nirmatrelvir]	8.36	8.15		
CCC(CC)COC(=O)[C@H](C)N[P@](=O)(OC[C@H]1O[C@@](C#N)(c2ccc3c(N)ncnn23)[C@H](O)[C@@H]1O)Oc1ccccc1 [Remdesivir, remdesivir]	5.92	5.96	1.0	
CC(C)(C)NC(=O)N[C@H](C(=O)N1C[C@H]2[C@@H]([C@H]1C(=O)NC(CC1CCC1)C(=O)C(N)=O)C2(C)C)C(C)(C)C (some centres unmarked) [boceprevir]				no detectable effect
